Test results as given in the NIST ThermoML archive (doi:10.1021/je100765j).

Assay: xn = mol fraction of the nth substance listed
Conditions: 101 kPa, Liquid; for speed of sound: Sing-around technique in a fixed-path interferometer

CC(C)CCl [1-chloro-2-methylpropane] + CC(C)OC(C)C
Conditions	mass density [kg/m3]	speed of sound [m/s]
283.15 K, x1 = 0.0549	740.509	1069.1
283.15 K, x1 = 0.091	745.071	1071.7
283.15 K, x1 = 0.1977	758.96	1079.6
283.15 K, x1 = 0.2934	772.077	1087
283.15 K, x1 = 0.3911	785.941	1094.4
283.15 K, x1 = 0.5137	804.21	1103.7
283.15 K, x1 = 0.6034	818.258	1110.5
283.15 K, x1 = 0.6769	830.206	1116.2
283.15 K, x1 = 0.8059	852.473	1126.3
283.15 K, x1 = 0.9111	871.773	1134.7
283.15 K, x1 = 0.9646	881.981	1139
288.15 K, x1 = 0.0549	735.346	1046.8
288.15 K, x1 = 0.091	739.888	1049.4
288.15 K, x1 = 0.1977	753.737	1057.5
288.15 K, x1 = 0.2934	766.807	1064.8
288.15 K, x1 = 0.3911	780.617	1072.3
288.15 K, x1 = 0.5137	798.831	1081.8
288.15 K, x1 = 0.6034	812.821	1088.7
288.15 K, x1 = 0.6769	824.734	1094.5
288.15 K, x1 = 0.8059	846.936	1104.9
288.15 K, x1 = 0.9111	866.179	1113.5
288.15 K, x1 = 0.9646	876.368	1117.9
293.15 K, x1 = 0.0549	730.142	1024.4
293.15 K, x1 = 0.091	734.678	1027
293.15 K, x1 = 0.1977	748.467	1035.1
293.15 K, x1 = 0.2934	761.481	1042.6
293.15 K, x1 = 0.3911	775.245	1050.3
293.15 K, x1 = 0.5137	793.406	1059.9
293.15 K, x1 = 0.6034	807.35	1066.9
293.15 K, x1 = 0.6769	819.228	1072.8
293.15 K, x1 = 0.8059	841.356	1083.4
293.15 K, x1 = 0.9111	860.549	1092.2
293.15 K, x1 = 0.9646	870.717	1096.8
298.15 K, x1 = 0.0549	724.887	1002.1
298.15 K, x1 = 0.091	729.395	1004.7
298.15 K, x1 = 0.1977	743.114	1013
298.15 K, x1 = 0.2934	756.06	1020.5
298.15 K, x1 = 0.3911	769.763	1028.2
298.15 K, x1 = 0.5137	787.825	1038
298.15 K, x1 = 0.6034	801.699	1045.2
298.15 K, x1 = 0.6769	813.519	1051.2
298.15 K, x1 = 0.8059	835.53	1062
298.15 K, x1 = 0.9111	854.603	1071
298.15 K, x1 = 0.9646	864.749	1075.6
303.15 K, x1 = 0.0549	719.603	979.86
303.15 K, x1 = 0.091	724.11	982.53
303.15 K, x1 = 0.1977	737.798	990.87
303.15 K, x1 = 0.2934	750.738	998.49
303.15 K, x1 = 0.3911	764.421	1006.3
303.15 K, x1 = 0.5137	782.446	1016.2
303.15 K, x1 = 0.6034	796.305	1023.5
303.15 K, x1 = 0.6769	808.11	1029.7
303.15 K, x1 = 0.8059	830.111	1040.8
303.15 K, x1 = 0.9111	849.196	1050
303.15 K, x1 = 0.9646	859.307	1054.8
308.15 K, x1 = 0.0549	714.28	957.82
308.15 K, x1 = 0.091	718.759	960.52
308.15 K, x1 = 0.1977	732.397	968.88
308.15 K, x1 = 0.2934	745.3	976.54
308.15 K, x1 = 0.3911	758.935	984.48
308.15 K, x1 = 0.5137	776.901	994.58
308.15 K, x1 = 0.6034	790.719	1002
308.15 K, x1 = 0.6769	802.492	1008.2
308.15 K, x1 = 0.8059	824.422	1019.6
308.15 K, x1 = 0.9111	843.468	1029
308.15 K, x1 = 0.9646	853.542	1033.8
313.15 K, x1 = 0.0549	708.887	935.95
313.15 K, x1 = 0.091	713.334	938.67
313.15 K, x1 = 0.1977	726.882	947.16
313.15 K, x1 = 0.2934	739.693	954.94
313.15 K, x1 = 0.3911	753.227	963
313.15 K, x1 = 0.5137	771.077	973.17
313.15 K, x1 = 0.6034	784.802	980.73
313.15 K, x1 = 0.6769	796.487	987.04
313.15 K, x1 = 0.8059	818.264	998.57
313.15 K, x1 = 0.9111	837.168	1008.1
313.15 K, x1 = 0.9646	847.176	1013

CCCCCl [1-chlorobutane] + CC(C)OC(C)C
Conditions	mass density [kg/m3]	speed of sound [m/s]
283.15 K, x1 = 0.0466	740.095	1070.9
283.15 K, x1 = 0.0991	747.139	1076.6
283.15 K, x1 = 0.1918	759.833	1087
283.15 K, x1 = 0.32	778.726	1101.5
283.15 K, x1 = 0.4199	793.339	1112.3
283.15 K, x1 = 0.516	808.586	1123.3
283.15 K, x1 = 0.623	826.434	1135.5
283.15 K, x1 = 0.7154	842.63	1146.3
283.15 K, x1 = 0.8157	861.003	1158.2
283.15 K, x1 = 0.9098	879.099	1169.3
283.15 K, x1 = 0.9559	888.28	1174.9
288.15 K, x1 = 0.0466	734.99	1048.6
288.15 K, x1 = 0.0991	741.966	1054.3
288.15 K, x1 = 0.1918	754.629	1064.7
288.15 K, x1 = 0.32	773.471	1079.4
288.15 K, x1 = 0.4199	788.055	1090.3
288.15 K, x1 = 0.516	803.274	1101.5
288.15 K, x1 = 0.623	821.073	1114
288.15 K, x1 = 0.7154	837.246	1125
288.15 K, x1 = 0.8157	855.588	1137
288.15 K, x1 = 0.9098	873.635	1148.4
288.15 K, x1 = 0.9559	882.81	1154.2
293.15 K, x1 = 0.0466	729.792	1026.2
293.15 K, x1 = 0.0991	736.75	1032
293.15 K, x1 = 0.1918	749.383	1042.5
293.15 K, x1 = 0.32	768.192	1057.3
293.15 K, x1 = 0.4199	782.731	1068.4
293.15 K, x1 = 0.516	797.924	1079.7
293.15 K, x1 = 0.623	815.68	1092.4
293.15 K, x1 = 0.7154	831.821	1103.6
293.15 K, x1 = 0.8157	850.133	1115.9
293.15 K, x1 = 0.9098	868.142	1127.6
293.15 K, x1 = 0.9559	877.303	1133.4
298.15 K, x1 = 0.0466	724.56	1003.8
298.15 K, x1 = 0.0991	731.492	1009.7
298.15 K, x1 = 0.1918	744.091	1020.2
298.15 K, x1 = 0.32	762.854	1035.2
298.15 K, x1 = 0.4199	777.351	1046.6
298.15 K, x1 = 0.516	792.506	1058
298.15 K, x1 = 0.623	810.177	1071
298.15 K, x1 = 0.7154	826.321	1082.3
298.15 K, x1 = 0.8157	844.587	1094.8
298.15 K, x1 = 0.9098	862.556	1106.6
298.15 K, x1 = 0.9559	871.691	1112.7
303.15 K, x1 = 0.0466	719.283	981.56
303.15 K, x1 = 0.0991	726.204	987.54
303.15 K, x1 = 0.1918	738.777	998.37
303.15 K, x1 = 0.32	757.526	1013.6
303.15 K, x1 = 0.4199	771.984	1024.8
303.15 K, x1 = 0.516	787.119	1036.5
303.15 K, x1 = 0.623	804.761	1049.6
303.15 K, x1 = 0.7154	820.882	1061.1
303.15 K, x1 = 0.8157	839.124	1073.8
303.15 K, x1 = 0.9098	857.076	1085.9
303.15 K, x1 = 0.9559	866.204	1092
308.15 K, x1 = 0.0466	713.967	959.5
308.15 K, x1 = 0.0991	720.87	965.54
308.15 K, x1 = 0.1918	733.414	976.43
308.15 K, x1 = 0.32	752.126	991.71
308.15 K, x1 = 0.4199	766.553	1003.3
308.15 K, x1 = 0.516	781.656	1015
308.15 K, x1 = 0.623	799.266	1028.4
308.15 K, x1 = 0.7154	815.358	1040.1
308.15 K, x1 = 0.8157	833.567	1053
308.15 K, x1 = 0.9098	851.486	1065.3
308.15 K, x1 = 0.9559	860.595	1071.5
313.15 K, x1 = 0.0466	708.604	937.74
313.15 K, x1 = 0.0991	715.486	943.72
313.15 K, x1 = 0.1918	728.002	954.72
313.15 K, x1 = 0.32	746.649	970.22
313.15 K, x1 = 0.4199	761.063	981.83
313.15 K, x1 = 0.516	776.136	993.77
313.15 K, x1 = 0.623	793.704	1007.3
313.15 K, x1 = 0.7154	809.769	1019.1
313.15 K, x1 = 0.8157	827.935	1032.2
313.15 K, x1 = 0.9098	845.816	1044.8
313.15 K, x1 = 0.9559	854.913	1051.1
